Experiments:
Test in all cases: relative viability (nuclei count vs DMSO), 5 days (fraction); higher = more cells survive
[1] = compound: CC1=C(CC(=O)O)c2cc(F)ccc2/C1=C\c1ccc([S+](C)[O-])cc1 [Sulindac] + Cc1cc(Nc2cc(N3CCN(C)CC3)nc(Sc3ccc(NC(=O)C4CC4)cc3)n2)n[nH]1 [Tozasertib] (partner 0.1 µM)
Outline: (§1)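 Relative viability divides the nuclei count in treated wells by that in vehicle wells. Lung cancer cell lines were seeded in 1536-well plates, dosed by pin tool the next day, and fixed and stained after 5 days in one step with final 0.05% Triton X-100, 1% formaldehyde and 1 ug/ml Hoechst. Dosing was a single drug or a fixed anchor-drug dose plus five library-drug doses (not always all listed) in √10 steps, and values are medians of duplicate plates imaged at 4×.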

[2] = compound: O=c1[nH]cc(F)c(=O)[nH]1 [5-Fluorouracil] + CC(C)C[C@H](NC(=O)[C@H](Cc1ccccc1)NC(=O)c1cnccn1)B(O)O [Bortezomib] (partner 0.002 µM)
Outline: as §1

[3] = compound: O=c1[nH]cc(F)c(=O)[nH]1 [5-Fluorouracil] + CS(=O)(=O)N1CCN(Cc2cc3nc(-c4cccc5[nH]ncc45)nc(N4CCOCC4)c3s2)CC1 [Pictilisib] (partner 1 µM)
Outline: as §1

[4] = compound: O=c1[nH]cc(F)c(=O)[nH]1 [5-Fluorouracil] + O=C(c1cc(Cc2n[nH]c(=O)c3ccccc23)ccc1F)N1CCN(C(=O)C2CC2)CC1 [Olaparib] (partner 8 µM)
Outline: as §1

Cell Line	relative viability ([1]; first compound 0.08 µM)	relative viability ([1]; first compound 0.253 µM)	relative viability ([1]; first compound 0.8 µM)	relative viability ([1]; first compound 2.53 µM)	relative viability ([1]; first compound 8 µM)	relative viability ([2]; first compound 0.02 µM)	relative viability ([2]; first compound 0.2 µM)	relative viability ([2]; first compound 0.6325 µM)	relative viability ([2]; first compound 2 µM)	relative viability ([3]; first compound 0.02 µM)	relative viability ([3]; first compound 0.2 µM)	relative viability ([3]; first compound 0.6325 µM)	relative viability ([3]; first compound 2 µM)	relative viability ([4]; first compound 0.02 µM)	relative viability ([4]; first compound 0.2 µM)	relative viability ([4]; first compound 0.6325 µM)	relative viability ([4]; first compound 2 µM)
NCI-H2228	0.222	0.248	0.242	0.294	0.262	1.03	0.911	0.811	0.442	0.378	0.309	0.205	0.201	0.998	0.671	0.44	0.33
H3255	0.593	0.546	0.413	0.616	0.619	0.804	0.867	0.684	0.544	0.462	0.498	0.495	0.386	0.573	0.578	0.578	0.556
HCC-15	0.29	0.423	0.318	0.421	0.37	1.18	1.03	0.534	0.322	0.903	0.762	0.539	0.315	0.741	0.707	0.521	0.33
NCI-H838	0.283	0.269	0.253	0.248	0.218	0.732	0.794	0.637	0.281	0.414	0.402	0.306	0.269	0.801	0.691	0.45	0.296
NCI-H2023	0.558	0.365	0.322	0.3	0.41	0.803	0.214	0.11	0.0857	0.283	0.164	0.0894	0.0821	0.517	0.196	0.111	0.0832

From the supplement of paper PMC10307832
